Our source for the EC50 and IC50 values is patent publication US12552802B2, “Fused [7,5] bicyclic pyrazole derivatives and methods of use thereof for the treatment of herpesviruses” (Merck Sharp & Dohme LLC, priority 2020, dated 2026).

The subject of one assay is HSV2. The assay is described as follows: Viral qPCR assay, HSV2 in Vero cells. It counts as cell-based. The following applies: Human alphaherpesvirus 2, ~72 hrs, viral genome copies by qPCR, read-out: HSV2 VERO Cell (EC50). The method, then:
(§1) MRC5 cells, Vero cells, and MeWo cells were obtained from ATCC and were maintained at 37° C./5% CO2/90% relative humidity in Minimal Essential Medium with 10% fetal bovine serum, […] L-glutamine, 100 units/ml penicillin and 100 ug/ml streptomycin. Assay plates were prepared by dispensing compounds dissolved in DMSO into wells of 384 well collagen-coated plates using an ECHO acoustic dispenser. Each compound was tested in a 10-point, serial 3-fold dilution. Controls included uninfected cells and infected cells treated only with DMSO. Assays were initiated by mixing selected cells, in suspension, with virus, and dispensing 50 μl/well infected cells to pre-plated compounds. Plates were incubated at 37° C./5% CO2/90% relative humidity for ˜72 hrs to permit genomic replication, and infected cells were lysed by the addition of an equal volume of lysis buffer (10 mM Tris-HCl, pH8, 50 mM KCl, 2 mM MgCl2, 0.45% NP-40, 0.45% Tween-20, and 100 μg/ml proteinase K). […] Levels of a viral gene and of the cellular control, PPIA (Thermo Fisher Assay ID=Hs04194521_s1), were measured in separate 10 μL qPCR assays using TaqMang Gene Expression Master Mix (Applied Biosystems), and an 7900HT Fast Real-Time PCR System with 384-Well Block Module. 7-point, serial 10-fold dilutions of a plasmid standard were run on each plate to generate a standard curve, and genome copies numbers were calculated by plotting experimental Ct onto linear regression of the standard curve. […] Calculated % effects were fit using a 4-parameter algorithm, and EC50 was reported.
(§2) MRC5 cells, Vero cells, and MeWo cells were obtained from ATCC and were maintained at 37° C./5% CO2/90% relative humidity in Minimal Essential Medium with 10% fetal bovine serum, […] L-glutamine, 100 units/ml penicillin and 100 ug/ml streptomycin. […] Levels of a viral gene were measured in 10 μL qPCR assays using TaqMang Gene Expression Master Mix (Applied Biosystems), and an 7900HT Fast Real-Time PCR System with 384-Well Block Module. […]
(In qPCR the cycle at which signal appears reflects the starting amount.)

Another assay concerns HSV-1 Strain F. Nature of the assay: Viral qPCR assay, HSV1 in Vero cells. It counts as cell-based. The following applies: Human alphaherpesvirus 1, ~72 hrs, viral genome copies by qPCR, read-out: HSV1 VERO Cell (EC50). The procedure:
as §1, §2

The next assay relates to HCMV Strain AD169. The assay is described as follows: Viral qPCR assay, CMV in MRC5 cells. The format is cell-based, Human cytomegalovirus. The following applies: Human betaherpesvirus 5, AD169, ~72 hrs, viral genome copies by qPCR, read-out: CMV MRC5 Cell (EC50). The procedure: as §1, §2
For the next assay, the system named is VZV. Nature of the assay: Viral qPCR assay, VZV in MeWo cells. It counts as cell-based, varicella zoster virus. The following applies: Human alphaherpesvirus 3, ~72 hrs, viral genome copies by qPCR, read-out: VZV MEWO Cell (IC50). The method, then: as §1, §2
For assay [1], the target named is T1, Human cytomegalovirus (HCMV) DNA polymerase (Human cytomegalovirus, UniProt P08546).
T1 construct: made in house; host or cells: SF21 insect cells (baculovirus vector)
T1 sequence (P08546 whole entry): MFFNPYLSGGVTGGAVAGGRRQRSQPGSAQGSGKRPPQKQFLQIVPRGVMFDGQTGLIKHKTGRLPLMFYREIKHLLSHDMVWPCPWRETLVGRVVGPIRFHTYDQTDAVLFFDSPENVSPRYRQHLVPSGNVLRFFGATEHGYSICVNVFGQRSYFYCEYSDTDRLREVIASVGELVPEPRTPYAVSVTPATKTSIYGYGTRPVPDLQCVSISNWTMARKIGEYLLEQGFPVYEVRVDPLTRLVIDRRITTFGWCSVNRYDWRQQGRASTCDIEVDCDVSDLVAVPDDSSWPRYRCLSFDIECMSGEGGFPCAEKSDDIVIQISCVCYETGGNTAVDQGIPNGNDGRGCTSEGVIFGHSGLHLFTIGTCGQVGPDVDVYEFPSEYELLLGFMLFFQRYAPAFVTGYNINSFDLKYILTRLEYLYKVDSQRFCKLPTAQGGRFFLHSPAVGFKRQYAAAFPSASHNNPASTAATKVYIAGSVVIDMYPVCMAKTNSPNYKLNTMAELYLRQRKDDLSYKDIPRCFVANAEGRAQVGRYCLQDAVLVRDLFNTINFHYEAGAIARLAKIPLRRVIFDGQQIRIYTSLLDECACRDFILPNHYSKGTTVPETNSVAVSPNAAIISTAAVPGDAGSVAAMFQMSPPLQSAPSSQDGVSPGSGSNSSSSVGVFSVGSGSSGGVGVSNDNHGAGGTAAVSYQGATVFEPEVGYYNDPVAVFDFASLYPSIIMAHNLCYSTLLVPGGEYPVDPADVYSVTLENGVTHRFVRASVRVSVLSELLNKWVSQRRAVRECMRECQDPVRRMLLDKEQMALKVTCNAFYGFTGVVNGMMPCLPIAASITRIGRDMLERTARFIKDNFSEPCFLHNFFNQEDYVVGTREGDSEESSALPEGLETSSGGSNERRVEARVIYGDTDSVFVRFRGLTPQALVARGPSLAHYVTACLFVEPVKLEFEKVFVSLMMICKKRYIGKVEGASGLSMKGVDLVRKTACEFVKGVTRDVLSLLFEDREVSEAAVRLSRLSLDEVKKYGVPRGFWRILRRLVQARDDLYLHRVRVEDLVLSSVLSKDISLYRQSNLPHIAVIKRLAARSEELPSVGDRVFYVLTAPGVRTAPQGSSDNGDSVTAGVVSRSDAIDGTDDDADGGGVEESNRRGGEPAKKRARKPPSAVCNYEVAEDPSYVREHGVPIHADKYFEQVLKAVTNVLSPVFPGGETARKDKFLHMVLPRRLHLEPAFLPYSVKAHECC
Nature of the assay: HCMV polymerase assay. It counts as biochemical. The following applies: polymerase 0.2 nM, AlphaLISA detection; read-out: CMV (IC50). The procedure: (§3) Human cytomegalovirus (HCMV) and varicella zoster virus (VZV) DNA polymerases were expressed via baculovirus vector in SF21 cells and purified. Heterodimeric nucleic acid substrate used in the herpesvirus polymerase reactions was generated by annealing a 59-mer template to a 17-mer digoxigenin-labeled primer. Polymerase (HCMV final concentration of 0.2 nM; VZV final concentration of 0.4 nM) was combined with an inhibitor compound or DMSO in assay buffer (10 mM HEPES, pH 7.5, 25 mM KCl, 25 mM NaCl, 5 mM MgCl2, 5% glycerol, 0.67 mg/ml bovine serum albuminutes (albuminate?), and 1 mM tris(2-carboxyethyl)phosphine), and this mixture was pre-incubated for 30 minutes at room temperature in 384-well microtiter plates. The polymerization reaction was initiated by the addition of template/primer substrate (final concentration: 1.6 nM), and dNTPs (final concentration: 24 nM dCTP, 24 nMdGTP, 16 nM dATP, 16 nM dTTP, and 0.8 nM biotin-dUTP). After 60 minutes incubation at 37° C., reactions were terminated with quench buffer (25 mM HEPES pH 7.5, 100 mM NaCl, 0.25% Tween-20, 12 mM EDTA, and 1 mg/ml bovine serum albumin). Incorporation of biotinylated UTP was detected with 2.5-5 ug/ml anti-DIG AlphaLISA acceptor beads and 5-10 ug/ml streptavidin AlphaLISA donor beads (Perkin Elmer). Compound effects were normalized to the window defined by the controls (DMSO only and pre-quenched wells), and were fit using a 4-parameter algorithm to report an IC50.
(Alpha assays give light when donor and acceptor beads are brought close together.)

For assay [2], the target named is T2, varicella zoster virus (VZV) DNA polymerase (Varicella-zoster virus, UniProt P09252).
T2 construct: made in house; host or cells: SF21 insect cells (baculovirus vector)
T2 sequence (P09252 whole entry): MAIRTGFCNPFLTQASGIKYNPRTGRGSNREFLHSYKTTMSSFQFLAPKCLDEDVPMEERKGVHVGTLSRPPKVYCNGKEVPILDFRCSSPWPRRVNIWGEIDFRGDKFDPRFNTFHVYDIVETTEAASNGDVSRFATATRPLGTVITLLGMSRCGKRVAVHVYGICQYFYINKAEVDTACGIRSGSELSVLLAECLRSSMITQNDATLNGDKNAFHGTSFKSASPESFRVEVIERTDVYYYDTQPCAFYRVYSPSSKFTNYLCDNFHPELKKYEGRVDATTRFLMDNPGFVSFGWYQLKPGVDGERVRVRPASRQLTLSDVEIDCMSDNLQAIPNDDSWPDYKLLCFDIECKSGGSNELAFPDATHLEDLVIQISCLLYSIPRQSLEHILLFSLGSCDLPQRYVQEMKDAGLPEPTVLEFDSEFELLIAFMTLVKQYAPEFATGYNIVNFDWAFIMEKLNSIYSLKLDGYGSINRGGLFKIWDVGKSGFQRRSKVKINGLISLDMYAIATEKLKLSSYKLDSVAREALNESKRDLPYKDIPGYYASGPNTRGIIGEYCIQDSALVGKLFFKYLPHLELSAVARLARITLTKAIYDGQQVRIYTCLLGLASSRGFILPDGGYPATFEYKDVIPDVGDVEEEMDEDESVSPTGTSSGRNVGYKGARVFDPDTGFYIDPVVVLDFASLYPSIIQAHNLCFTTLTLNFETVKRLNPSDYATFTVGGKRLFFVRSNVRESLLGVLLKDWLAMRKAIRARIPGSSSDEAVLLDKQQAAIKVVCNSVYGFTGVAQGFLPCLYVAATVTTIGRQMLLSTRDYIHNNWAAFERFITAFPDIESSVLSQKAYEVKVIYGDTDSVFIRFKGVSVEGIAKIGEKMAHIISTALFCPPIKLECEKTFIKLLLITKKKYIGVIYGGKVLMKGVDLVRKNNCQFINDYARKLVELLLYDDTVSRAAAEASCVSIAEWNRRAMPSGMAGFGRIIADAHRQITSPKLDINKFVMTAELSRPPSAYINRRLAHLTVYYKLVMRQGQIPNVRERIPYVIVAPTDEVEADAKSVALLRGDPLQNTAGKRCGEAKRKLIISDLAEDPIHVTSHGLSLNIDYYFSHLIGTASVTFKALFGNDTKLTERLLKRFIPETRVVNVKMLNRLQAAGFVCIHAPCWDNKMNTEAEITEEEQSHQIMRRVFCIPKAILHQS
Nature of the assay: VZV polymerase assay. The format is biochemical. The following applies: polymerase 0.4 nM, AlphaLISA detection. The method, then: as §3

SMILES strings stand for the structures.

By EC50 is commonly meant the concentration needed to bring the measured effect to its halfway point. By IC50 is commonly meant the concentration that inhibits the measured activity by half. Consider `Cn1nc(C(=O)NCc2ccc(Cl)cc2)c2c1CCN(C[C@H]1COC(=O)N1)CC2` [Compound 1], for which the figures for the EC50 with HSV2, in the assay on HSV-1 Strain F and in the assay on HCMV Strain AD169 were 7.97 µM, 3.29 µM and 3.72 µM, respectively. The IC50 was 1.96 µM with VZV, 0.802 µM in assay [1] and 0.26 µM in assay [2].

`Cn1nc(C(=O)NCc2ccc(Cl)cc2)c2c1CCN(C[C@H]1CCC(=O)N1)CC2` [Compound 2]: the EC50 came to 5.68 µM with HSV2, 3.27 µM with HSV-1 Strain F and 8.68 µM in the assay on HCMV Strain AD169. Further, the values for the IC50 (in the assay on VZV; in assay [1]; in assay [2]) were 2.99 µM, 0.762 µM and 0.251 µM, respectively.

Take `Cc1nnn(C)c1CN1CCc2c(C(=O)NCc3ccc(Cl)cc3)nn(C)c2CC1` [Compound 3]: the EC50 with HSV2 is 7.82 µM; in the assay with HSV-1 Strain F, 4.58 µM; in the assay with HCMV Strain AD169, 12.4 µM. Further, the IC50 with VZV was found to be 1.44 µM; in assay [1], 0.805 µM; in assay [2] it was 0.373 µM.
